Assays:
CXCR3 = target: T1, CXCR3 (Homo sapiens, UniProt P49682); experiment: Migration of CHO-K1 cells expressing CXCR3; type: cell-based; design: cDNA fragments encompassing chemokine receptor coding regions; expressed in transfected cells; host or cells: CHO-K1 (ATCC CCL-61), transient transfection; details: CHO-K1 cells expressing CXCR3, 2 hours; FIG. 3
T1 sequence (P49682 1-368): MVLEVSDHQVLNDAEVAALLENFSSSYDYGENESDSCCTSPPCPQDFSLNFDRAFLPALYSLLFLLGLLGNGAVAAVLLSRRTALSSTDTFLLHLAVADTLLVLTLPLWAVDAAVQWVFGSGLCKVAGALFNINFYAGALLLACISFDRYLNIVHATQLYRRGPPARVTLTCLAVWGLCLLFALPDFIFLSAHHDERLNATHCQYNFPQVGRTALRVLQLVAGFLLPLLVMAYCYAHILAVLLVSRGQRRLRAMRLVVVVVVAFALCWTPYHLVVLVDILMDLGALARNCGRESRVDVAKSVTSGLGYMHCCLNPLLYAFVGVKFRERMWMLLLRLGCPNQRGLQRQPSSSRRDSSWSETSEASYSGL
Protocol: (§1) CHO-K1 cells were obtained from American Type Culture Collection (CCL-61) and cultured in Ham's F12 media supplemented with 10% heat inactivated FBS and 100 μg/ml penicillin/streptomycin. cDNA fragments encompassing chemokine receptor coding regions were obtained from cDNAs synthesized from HL-60 cells and/or human peripheral blood mononuclear cells by the polymerase chain reaction. Expression constructs of chemokine receptors were generated by cloning PCR fragments into expression vector pEF6/V5-TOPO (K9610-20, Invitrogen). Transient transfections were carried out with Fugene 6 transfection reagent (1814443, Roche Applied Science) according to the manufacturer's instructions.
(§2) The CHO-chemokine receptor cells were used in migration assays 36 hours following transfection. In vitro migration assays were performed using a Neuroprobe Blindwell migration apparatus (AA12, Neuro Probe, Inc./16008 Industrial Drive, Gaithersburg, Md. 20877) according to the manufacturer's instructions with slight modifications. […]
(§3) Following the migration assays, migrated cells that had adhered to the underside of the filter were quantitated according to the manufacturer's instructions. […] Stained filtered were mounted onto microscope slides and migrated cells in each well were manually counted under 40× magnification.

FMLP receptor = target: T2, FMLP receptor (Homo sapiens, UniProt P21462); experiment: Migration of CHO-K1 cells expressing the FMLP receptor; type: cell-based; details: 2 hours, FIG. 4
T2 construct: cDNA fragments encompassing chemokine receptor coding regions; expressed in transfected cells; host or cells: CHO-K1 (ATCC CCL-61), transient transfection
T2 sequence (P21462 1-350): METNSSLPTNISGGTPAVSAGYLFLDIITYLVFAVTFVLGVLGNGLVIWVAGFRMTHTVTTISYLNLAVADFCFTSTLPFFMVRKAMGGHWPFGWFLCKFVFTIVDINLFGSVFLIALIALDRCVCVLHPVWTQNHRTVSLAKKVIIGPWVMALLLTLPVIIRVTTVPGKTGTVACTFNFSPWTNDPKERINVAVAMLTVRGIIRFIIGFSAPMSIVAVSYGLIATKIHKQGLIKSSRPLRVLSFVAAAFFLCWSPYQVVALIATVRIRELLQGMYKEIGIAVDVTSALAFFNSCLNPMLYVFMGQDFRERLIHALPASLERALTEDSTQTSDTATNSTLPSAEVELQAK
Protocol: as §1, §2, §3

CX3CR1 = target: T3, CX3CR1 (Homo sapiens, UniProt P49238); experiment: Migration of CHO-K1 cells expressing CX3CR1; type: cell-based; details: CHO-K1 cells expressing CX3CR1, 2 hours; FIG. 3
T3 construct: cDNA fragments encompassing chemokine receptor coding regions; expressed in transfected cells; host or cells: CHO-K1 (ATCC CCL-61), transient transfection
T3 sequence (P49238 1-355): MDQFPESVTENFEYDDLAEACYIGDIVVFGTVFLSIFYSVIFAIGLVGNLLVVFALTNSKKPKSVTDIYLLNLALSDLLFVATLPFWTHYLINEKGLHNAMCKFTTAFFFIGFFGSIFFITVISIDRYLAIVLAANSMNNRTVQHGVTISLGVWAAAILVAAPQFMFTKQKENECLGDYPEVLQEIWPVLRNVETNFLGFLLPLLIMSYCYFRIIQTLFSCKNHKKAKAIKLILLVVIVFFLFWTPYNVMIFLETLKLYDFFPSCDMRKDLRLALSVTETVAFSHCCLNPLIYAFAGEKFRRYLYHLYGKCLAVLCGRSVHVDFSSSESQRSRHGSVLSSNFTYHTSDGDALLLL
Protocol: as §1, §2, §3

CXCR1 = target: T4, CXCR1 (Homo sapiens, UniProt P25024); experiment: Migration of CHO-K1 cells expressing CXCR1; type: cell-based; details: CHO-K1 cells expressing CXCR1, 2 hours; degree similar to IL-8; FIG. 3
T4 construct: cDNA fragments encompassing chemokine receptor coding regions; expressed in transfected cells; host or cells: CHO-K1 (ATCC CCL-61), transient transfection
T4 sequence (P25024 1-350): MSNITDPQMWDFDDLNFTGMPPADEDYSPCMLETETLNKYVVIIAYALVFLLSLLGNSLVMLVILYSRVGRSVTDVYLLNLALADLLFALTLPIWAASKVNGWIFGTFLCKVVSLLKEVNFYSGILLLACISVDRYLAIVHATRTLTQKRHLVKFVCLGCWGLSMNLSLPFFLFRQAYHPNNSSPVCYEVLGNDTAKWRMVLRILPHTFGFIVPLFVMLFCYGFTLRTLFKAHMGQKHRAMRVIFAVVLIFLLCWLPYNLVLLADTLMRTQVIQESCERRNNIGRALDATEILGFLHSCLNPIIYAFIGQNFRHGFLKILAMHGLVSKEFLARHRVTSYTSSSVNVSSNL
Protocol: as §1, §2, §3

CCR receptors = experiment: Migration of CHO-K1 cells expressing CCR receptors; type: cell-based, human; details: 2 hours, FIG. 4
Protocol: as §1, §2, §3

[1] = test system: C57BL/6J mice model of EAE; experiment: C57BL/6J mice model of experimental autoimmune encephalomyelitis (EAE), prevention paradigm; type: in vivo, mouse
CXCR6 = target: T5, CXCR6 (Homo sapiens, UniProt O00574); experiment: Migration of CHO-K1 cells expressing CXCR6; type: cell-based; details: CHO-K1 cells expressing CXCR6, 2 hours; FIG. 3
T5 construct: cDNA fragments encompassing chemokine receptor coding regions; expressed in transfected cells; host or cells: CHO-K1 (ATCC CCL-61), transient transfection
T5 sequence (O00574 whole entry, the tested form may be a part): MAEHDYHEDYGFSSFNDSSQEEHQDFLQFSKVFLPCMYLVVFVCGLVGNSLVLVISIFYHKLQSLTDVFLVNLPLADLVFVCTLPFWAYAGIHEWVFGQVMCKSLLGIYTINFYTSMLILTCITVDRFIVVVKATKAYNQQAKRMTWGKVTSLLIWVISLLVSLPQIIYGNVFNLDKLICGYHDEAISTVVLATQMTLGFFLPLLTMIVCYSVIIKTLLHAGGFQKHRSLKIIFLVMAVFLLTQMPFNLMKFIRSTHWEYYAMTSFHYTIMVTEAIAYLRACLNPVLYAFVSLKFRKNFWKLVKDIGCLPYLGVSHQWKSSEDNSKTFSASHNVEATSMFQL
Protocol: as §1, §2, §3

CC(C)(C)c1cc(/C=[N+](\[O-])C(C)(C)C)cc(C(C)(C)C)c1O [Compound 1, α-(4-hydroxy-3,5-di-tert-butylphenyl)-N-tert-butylnitrone]
induction of cell migration (CXCR3): induced migration | induction of cell migration (FMLP receptor): did not induce migration | induction of cell migration (CX3CR1): induced migration | induction of cell migration (CXCR1): induced migration | induction of cell migration (CCR receptors): did not induce migration | reversal of EAE-associated weight loss ([1]; 10 mg/kg oral once a day, FIG. 10): significant effect on reversal | tissue infiltration score (spinal cord, H&E) ([1]; 10 mg/kg vs Vehicle, Day 26, failing to reach statistical significance (p=0.0513), FIG. 11): lower infiltration score than control mice | maximum disease score ([1]; oral gavage once a day from 7 days before induction, Days 9-26, FIG. 8): significant effect | cumulative disease score ([1]; oral gavage once a day from 7 days before induction, Days 9-26, FIG. 9): significant effect | disease severity (average clinical scores) ([1]; oral gavage once a day, 0.3, 1, 3, 10 mg/kg from 7 days before induction, vs Vehicle, FIG. 7): significant reduction | induction of cell migration (CXCR6): induced migration

From patent US20050215646A1, “Methods for treating multiple sclerosis and pharmaceutical compositions therefor” (Renovis, Inc., priority 2004, published 2005)
